In US8007835B2, “Hibiscusanthocyanins for inhibiting cancers” (Aiken Biotechnology International Co., Ltd., priority 2005, dated 2011):

Legend:
c-Jun = test: Western blot, phosphorylated c-Jun in HL-60 cells; type: cell-based, human; settings: pretreatment with SB203580 (50 AM), then HAs 3 mg/ml 6 h
Procedure: (§1) The medium was removed, and the cells were rinsed with TBS at room temperature. Then 500 μl of cold RIPA buffer (1% NP-40, 50 mM Tris-base, 0.1% SDS, 0.5% deoxycholic acid, and 150 mM NaCl, pH 7.5) with three kinds of proteinase freshly added (10 μg/ml leupeptin, 10 μg/ml PMSF, and 17 μg/ml sodium orthovanadate) were used. After sonication for 1 h at 4° C., a centrifugation (10,000×g) of cell lysate was performed for 10 min at 4° C. The supernatant (50 μg protein) was mixed with an equal volume of electrophoresis sample buffer and boiled for 10 min, which was then subjected to SDS-polyacrylamide gel electrophoresis using a 10% running gel, and electroblotted to nitrocellulose membranes (Millipore, Bedford, Mass., USA). Nonspecific binding was blocked by incubation of the membrane with TBS containing 1% (W/V) nonfat dry milk and 0.1% (v/v) Tween-20 (TBST) for more than 2 h. Membranes were washed with TBST three times for 10 min and incubated with appropriate dilution of primary antibody in TBST for 2 h. Membranes were then extensively washed with TBST before being incubated with appropriate horseradish peroxidase-conjugated secondary antibody for 1 h. After washing the membrane three times, 10 min each in TBST, detection was performed using ECLWestern blotting detection reagents (Amersham, Arlington Heights, Ill., USA).

Fas = test: Western blot, Fas expression in HL-60 cells; type: cell-based, human; settings: pretreatment with SB203580 (50 AM), then HAs 3 mg/ml 6 h
Procedure: as §1

FasL = test: Western blot, FasL expression in HL-60 cells; type: cell-based, human; settings: pretreatment with SB203580 (50 AM), then HAs 3 mg/ml 6 h
Procedure: as §1

HL-60 cells = test: Flow cytometry (PI) cell cycle and quantification of apoptosis; settings: for effect of inhibitor on HAs-induced apoptosis (cytotoxic action of HAs): PD98059 25 AM, SP600125 20 AM, wortmannin 1 AM, then HAs 3 mg/ml 24 h
Procedure: Flow cytometric analysis of HL-60 cells was performed on the 24-h cultures using a FACScan. The cells of harvest were centrifuged at 1000 rpm for 5 min at room temperature. Thereafter, cells were washed once with Tris-buffered saline (TBS). Then cell suspension was centrifuged again (1000 rpm, 5 min) and resuspended in 70% ethanol. After incubation at −20 for at least 24 h, the cells were resuspended in 1 ml of cell cycle assay buffer [50 μg/ml propidium iodide (PI), 50 μg/ml RNase A, and 0.1% Triton X-100], and it was incubated for 15 min in darkness. Propidium iodide (Sigma) was excited at 488 nm, and fluorescence signal was subjected to logarithmic amplification with PI fluorescence (red) being detected above 600 nm. Cell cycle distribution is presented as the number of cells versus the amount of DNA as indicated by the intensity of fluorescence, and the extent of apoptosis was determined by counting cells of DNA content below the G0/G1 peak.

Structure (SMILES)	c-Jun (phospho-c-Jun) expression (c-Jun)	Fas expression (Fas)	FasL expression (FasL)	reduction in the sub-G1 phase compared to HAs alone (HL-60 cells; 50 AM SB203580 followed by 24-h exposure to HAs (3 mg/ml))	sub-G1 phase (HL-60 cells; 50 AM SB203580 preincubation followed by 24-h exposure to HAs (3 mg/ml))	effect of inhibitor on HAs-induced apoptosis (cytotoxic action of HAs) (HL-60 cells)
C[S+]([O-])c1ccc(-c2nc(-c3ccc(F)cc3)c(-c3ccncc3)[nH]2)cc1 (stereo not shown) [SB203580, 4-[4-fluorophenyl]-2-[4-methylsulfinylphenyl]-5-[4-pyridyl]-1H-imidazole]	down-regulated	down-regulated	down-regulated	~50%	27.39%	
COC[C@H]1OC(=O)c2coc3c2[C@@]1(C)C1=C(C3=O)[C@@H]2CCC(=O)[C@@]2(C)C[C@H]1OC(C)=O [wortmannin]						did not reduce the cytotoxic action of HAs
Oc1c2ccccc2c2c3c(cccc13)N=N2 [SP600125, 1,9-pyrazoloanthrone]						did not reduce the cytotoxic action of HAs
